Here are results for 3 molecules from patent US9540328B2, “(−)-(2R,3S)-2-amino-3-hydroxy-3-pyridin-4-yl-1-pyrrolidin-1-yl-propan-1-one (L)-(+) tartrate salt, its method of production and use” (Allergan, Inc., priority 2013, dated 2017).

Structures can show the parent of a compound that is named as a salt.

Format in all cases: physicochemical
Series [1] is described as follows: Salt form optimization study: hygroscopicity / deliquescence of salts. An excerpt: In another salt from optimization study for the dibasic drug molecule (+/−)-erythro-2-amino-3-hydroxy-3-pyridin-4-yl-1-pyrrolidin-1-yl-propan-1-one, the dihydrochloride was the first salt prepared and characterized. […] The following counterions were used: sulfuric acid, 1-hydroxy-2-naphthoic acid, methanesulfonic acid, naphthalene-2-sulfonic acid, benzenesulfonic acid, (L-) glutamic acid, malonic acid, citric acid, (−)-L-malic acid, lactic acid, ascorbic acid, and acetic acid. Of these the pursuance of mono-acetate, the naphthalene-2-sulfonate and the 1-hydroxy-2-naphthoate salts were recommended. […] The latter salt also represented a large counterion compared to the base and, especially at high doses, this was perceived as a definite disadvantage.

Series [2] can be described thus: Differential Scanning Calorimetry (DSC) degradation. A general note: DSC measures the heat that a sample takes up or gives off during a temperature scan.
The nature of series [3]: TG-FTIR thermal decomposition.
A short description of series [4]: Dynamic Vapor Sorption (DVS).
Setting [5] is: sample of FIG. 11 (crystalline salt).

Consider `N[C@@H](C(=O)N1CCCC1)[C@@H](O)c1ccncc1` (racemic) [dihydrochloride, (+/−)-erythro-2-amino-3-hydroxy-3-pyridin-4-yl-1-pyrrolidin-1-yl-propan-1-one], for which the hygroscopicity entry in series [1] is given as “hygroscopic”.

Regarding `N[C@@H](C(=O)N1CCCC1)[C@@H](O)c1ccncc1` (racemic) [acetate salt, (+/−)-erythro-2-amino-3-hydroxy-3-pyridin-4-yl-1-pyrrolidin-1-yl-propan-1-one], the “relative humidity at which the salt deliquesced” value in series [1] turned out to be 51 % RH.

Regarding `N[C@@H](C(=O)N1CCCC1)[C@@H](O)c1ccncc1.O=C(O)C(O)C(O)C(=O)O` [(−)-(2R,3S)-2-amino-3-hydroxy-3-pyridin-4-yl-1-pyrrolidin-1-yl-propan-1-one (L)-(+) tartrate], in series [2] (DSC first scan, sample of FIG. 10 (crystalline salt)), the “overlapping melting and degradation temperature” value is roughly 160 °C. For the same molecule, the degradation temperature entry in series [2] (DSC, amorphous sample, FIG. 16) is “above 118 °C”; in series [3] (amorphous sample, FIG. 15) it was “above 160 °C”. Besides, in series [3] (sample of FIG. 9 (crystalline salt)), the decomposition temperature result was “above 160 °C”. For the same molecule, the hygroscopicity entry in series [4] (amorphous sample, FIG. 17) is listed as “very hygroscopic”; in series [4] (setting [5]), “very hygroscopic”. For the same molecule, the deliquescence result in series [4] (amorphous sample, FIG. 17, visually confirmed) was “deliquescent”; in series [4] (sample of FIG. 11 (crystalline salt), visually confirmed) it was “deliquescent”. Also, in series [4] (setting [5]), the “relative humidity above which water uptake occurs” value was “above 80 % r.h”.
